# Results as given in US20220125959A1, “PROSTATE-SPECIFIC MEMBRANE ANTIGEN (PSMA) INHIBITORS AS DIAGNOSTIC AND RADIONUCLIDE THERAPEUTIC AGENTS” (FIVE ELEVEN PHARMA INC., priority 2019, published 2022).
# “And” between values parts separate entries of the source, which are not always exact repeats. Equal values may be shown once.
# Columns and labels:
# [1] = tested on: PSMA-negative cell line, PC3; experiment: In vitro cell uptake, PC3 cells; type: cell-based; conditions: PC3 (do not express PSMA), 60 min
# Protocol: (§1) To determine the cell uptakes of the [^177Lu] labelled ligands, 5×10^5 cells/well were grown in 12-well plates in 1 mL of medium for 48 h. The cells were washed twice with PBS, and 900 μL fresh media were added. Radiolabelled ligand was added and the PSMA-inhibitor (2-PMPA) was applied in a final concentration of 10 μM to determine unspecific binding. All samples were prepared in triplicate. Following the incubation at 37° C., cells were washed twice to remove unbound activity and afterwards lysed in 1 mL of 0.5 M NaOH. Activity was measured in a gamma counter. Aliquots of the solution added to the cells were also measured for the calculation of the cellular uptake as % ID.
# [2] = tested on: PC3-PIP (PSMA positive) and PC-3 tumors (PSMA negative); experiment: Biodistribution of 177Lu labeled compounds 4 and 7 in tumor bearing nude mice; type: in vivo, CD-1 male nude mice
# Protocol: (§2) ^177Lu labeling: To 10 μg ligand (1 mg/mL DMSO) were added 15 μL of 2.0 N NaOAc, 400 μL 0.05 N HCl, and 20 μL ^177Lu-solution (780 μCi (Capintec setting 450 (reading×10)). The reaction was heated with a heating block at 95° C. for 1 hour in a 3 mL closed vial. After cooling, the sample was analyzed by HPLC (HPLC: Eclipse XDB-C18 150×4.6 mm, gradient, 1 mL/min; A: 0.1% TFA in water; B: 0.1% TFA in ACN: 0-4 min A/B 85/15%; 4-11 min: from 85/15 to 30/70%; 11-14 min: from 30/70% to 85/15%). Radiochemical purity of [^177Lu]4 (FIG. 2) and [^177Lu]7 was >98% and injected doses were stable at 48 hr after formulation.
# (§3) For iv injection 150 μL of labeled solution was diluted with saline to 3.75mL. Mice were injected with 150 μL of formulated dose. Injected radioactivity was 100 μCi and PSMA ligand amount was constant at 0.72 nmole/mouse.
# Biodistribution of [^68Ga]4, [^177Lu]4 and [^177Lu]7 was determined in nude mice bearing PIP PC3 (PSMA positive) and PC3 (PSMA negative) tumors on the left and right shoulder, respectively, over a period of 192 h (Table 3a, 3b and 3c). […] The uptake in PC3 tumors (PSMA negative) of both ligands, [^177Lu]4 and [^177Lu]7, was clearly much lower than those of PC-3 PIP tumors (PSMA positive).
# [3] = Stability of injected doses after formulation; type: physicochemical; conditions: at 48 hr after formulation
# Protocol: ^68Ga labeling: To 15 nmole ligand 4 (1 mg/mL DMSO) were added 20 μL of 2.0 N NaOAc, 500 μL ^68Ga-solution (2.25 mCi). The reaction was heated in a heating block at 90° C. for 10 minutes in a 3 mL closed vial. After cooling, the sample was analyzed by HPLC (HPLC: Eclise XDB C18 150×4.6 mm, gradient, 2 mL/min; A: 0.1% TFA in water; B: 0.1% TFA in ACN: 0-2 min 100% A; 2-4 min: from 0% to 100% B; 4-9 min: 100% B; 9-10 min: from 100% to 0% B). Radiochemical purity of [^68Ga]4 was >99% RCP (FIG. 1) and injected doses were stable at 2 hr after formulation.
# as §2, §3
# [4] = tested on: PSMA-positive cell line, PIP PC3; experiment: In vitro cell uptake, PIP PC3 cells; type: cell-based
# Protocol: as §1, with “Radiolabelled ligand was added and the PSMA-inhibitor (2-PMPA) was applied in a final concentration of 10 μM to determine unspecific binding.” left out
structure (smiles),measurement,setting,value
O=C(O)CC[C@H](NC(=O)N[C@@H](CCCCNC(=O)[C@H](Cc1ccccc1)NC(=O)COc1ccc(C[C@H](NC(=O)CNC(=O)CCC(C(=O)O)N2CCN(CC(=O)O)CCN(C(CCC(=O)NCCOCCOCCNC(=O)CCCc3ccc(I)cc3)C(=O)O)CCN(CC(=O)O)CC2)C(=O)O)cc1)C(=O)O)C(=O)O.[177Lu] (stereo partly shown) [[^177Lu]7],In vitro cell uptake,[1],0.7 % ID per 5 × 10^5 cells
same,Biodistribution: Blood,[2]; 1 hr,13.20 ± 3.17 % dose/g
same,Biodistribution: Bone,[2]; 1 hr,1.78 ± 0.97 % dose/g
same,Biodistribution: Brain,[2]; 1 hr,0.35 ± 0.04 % dose/g
same,Biodistribution: Heart,[2]; 1 hr,3.79 ± 0.67 % dose/g
same,Biodistribution: Intestine,[2]; 1 hr,1.89 ± 0.18 % dose/g
same,Biodistribution: Kidney,[2]; 1 hr,37.38 ± 4.08 % dose/g
same,Biodistribution: Liver,[2]; 1 hr,2.63 ± 0.69 % dose/g
same,Biodistribution: Lung,[2]; 1 hr,5.89 ± 0.53 % dose/g
same,Biodistribution: Muscle,[2]; 1 hr,1.88 ± 0.27 % dose/g
same,Biodistribution: PC3 tumor,[2]; 1 hr,5.26 ± 1.63 % dose/g
same,Biodistribution: PIP PC3 tumor,[2]; 1 hr,12.51 ± 0.94 % dose/g
same,Biodistribution: Pancreas,[2]; 1 hr,1.71 ± 0.40 % dose/g
same,Biodistribution: Skin,[2]; 1 hr,5.18 ± 1.59 % dose/g
same,Biodistribution: Spleen,[2]; 1 hr,2.87 ± 0.82 % dose/g
same,Biodistribution: Stomach,[2]; 1 hr,1.57 ± 0.39 % dose/g
same,Biodistribution: Blood,[2]; 4 hrs,12.06 % dose/g and 12.06 ± 2.26 % dose/g
same,Biodistribution: Bone,[2]; 4 hrs,2.05 ± 0.89 % dose/g
same,Biodistribution: Brain,[2]; 4 hrs,0.37 ± 0.08 % dose/g
same,Biodistribution: Heart,[2]; 4 hrs,3.96 ± 0.63 % dose/g
same,Biodistribution: Intestine,[2]; 4 hrs,2.97 ± 1.71 % dose/g
same,Biodistribution: Kidney,[2]; 4 hrs,60.07 ± 2.41 % dose/g
same,Biodistribution: Liver,[2]; 4 hrs,2.92 ± 0.85 % dose/g
same,Biodistribution: Lung,[2]; 4 hrs,6.07 ± 0.66 % dose/g
same,Biodistribution: Muscle,[2]; 4 hrs,1.55 ± 0.84 % dose/g
same,Biodistribution: PC3 tumor,[2]; 4 hrs,5.17 ± 1.02 % dose/g
same,Biodistribution: PIP PC3 tumor,[2]; 4 hrs,35.34 ± 12.11 % dose/g
same,Biodistribution: Pancreas,[2]; 4 hrs,2.08 ± 0.82 % dose/g
same,Biodistribution: Skin,[2]; 4 hrs,5.85 ± 2.04 % dose/g
same,Biodistribution: Spleen,[2]; 4 hrs,6.16 ± 2.81 % dose/g
same,Biodistribution: Stomach,[2]; 4 hrs,1.86 ± 1.12 % dose/g
same,Biodistribution: Blood,[2]; 24 hrs (1 day),1.79 ± 0.98 % dose/g
same,Biodistribution: Bone,[2]; 24 hrs (1 day),0.33 ± 0.14 % dose/g
same,Biodistribution: Brain,[2]; 24 hrs (1 day),0.08 ± 0.04 % dose/g
same,Biodistribution: Heart,[2]; 24 hrs (1 day),0.73 ± 0.42 % dose/g
same,Biodistribution: Intestine,[2]; 24 hrs (1 day),0.41 ± 0.24 % dose/g
same,Biodistribution: Kidney,[2]; 24 hrs (1 day),18.51 ± 7.79 % dose/g
same,Biodistribution: Liver,[2]; 24 hrs (1 day),0.57 ± 0.27 % dose/g
same,Biodistribution: Lung,[2]; 24 hrs (1 day),1.33 ± 0.85 % dose/g
same,Biodistribution: Muscle,[2]; 24 hrs (1 day),0.36 ± 0.24 % dose/g
same,Biodistribution: PC3 tumor,[2]; 24 hrs (1 day),2.15 ± 0.69 % dose/g
same,Biodistribution: PIP PC3 tumor,[2]; 24 hrs (1 day),35.34±12.11 % dose/g and 34.36 ± 6.87 % dose/g
same,Biodistribution: Pancreas,[2]; 24 hrs (1 day),0.45 ± 0.30 % dose/g
same,Biodistribution: Skin,[2]; 24 hrs (1 day),1.37 ± 0.63 % dose/g
same,Biodistribution: Spleen,[2]; 24 hrs (1 day),0.75 ± 0.17 % dose/g
same,Biodistribution: Stomach,[2]; 24 hrs (1 day),0.36 ± 0.23 % dose/g
same,Biodistribution: Blood,[2]; 48 hrs (2 days),0.84 ± 0.25 % dose/g
same,Biodistribution: Bone,[2]; 48 hrs (2 days),0.19 ± 0.03 % dose/g
same,Biodistribution: Brain,[2]; 48 hrs (2 days),0.06 ± 0.01 % dose/g
same,Biodistribution: Heart,[2]; 48 hrs (2 days),0.59 ± 0.21 % dose/g
same,Biodistribution: Intestine,[2]; 48 hrs (2 days),0.23 ± 0.07 % dose/g
same,Biodistribution: Kidney,[2]; 48 hrs (2 days),16.13 ± 6.19 % dose/g
same,Biodistribution: Liver,[2]; 48 hrs (2 days),0.42 ± 0.08 % dose/g
same,Biodistribution: Lung,[2]; 48 hrs (2 days),0.93 ± 0.26 % dose/g
same,Biodistribution: Muscle,[2]; 48 hrs (2 days),0.22 ± 0.07 % dose/g
same,Biodistribution: PC3 tumor,[2]; 48 hrs (2 days),1.77 ± 0.55 % dose/g
same,Biodistribution: PIP PC3 tumor,[2]; 48 hrs (2 days),41.80 ± 10.71 % dose/g
same,Biodistribution: Pancreas,[2]; 48 hrs (2 days),0.39 ± 0.18 % dose/g
same,Biodistribution: Skin,[2]; 48 hrs (2 days),0.63 ± 0.03 % dose/g
same,Biodistribution: Spleen,[2]; 48 hrs (2 days),1.27 ± 1.12 % dose/g
same,Biodistribution: Stomach,[2]; 48 hrs (2 days),0.18 ± 0.02 % dose/g
same,Biodistribution: Blood,[2]; 96 hrs (4 days),0.11 ± 0.10 % dose/g
same,Biodistribution: Bone,[2]; 96 hrs (4 days),0.11 ± 0.01 % dose/g
same,Biodistribution: Brain,[2]; 96 hrs (4 days),0.02 ± 0.01 % dose/g
same,Biodistribution: Heart,[2]; 96 hrs (4 days),0.30 ± 0.23 % dose/g
same,Biodistribution: Intestine,[2]; 96 hrs (4 days),0.19 ± 0.18 % dose/g
same,Biodistribution: Kidney,[2]; 96 hrs (4 days),4.28 ± 2.61 % dose/g
same,Biodistribution: Liver,[2]; 96 hrs (4 days),0.22 ± 0.09 % dose/g
same,Biodistribution: Lung,[2]; 96 hrs (4 days),0.31 ± 0.22 % dose/g
same,Biodistribution: Muscle,[2]; 96 hrs (4 days),0.18 ± 0.12 % dose/g
same,Biodistribution: PC3 tumor,[2]; 96 hrs (4 days),0.97 ± 0.56 % dose/g
same,Biodistribution: PIP PC3 tumor,[2]; 96 hrs (4 days),24.23 ± 13.09 % dose/g
same,Biodistribution: Pancreas,[2]; 96 hrs (4 days),0.09 ± 0.06 % dose/g
same,Biodistribution: Skin,[2]; 96 hrs (4 days),0.46 ± 0.22 % dose/g
same,Biodistribution: Spleen,[2]; 96 hrs (4 days),0.52 ± 0.30 % dose/g
same,Biodistribution: Stomach,[2]; 96 hrs (4 days),0.09 ± 0.06 % dose/g
same,Biodistribution: Blood,[2]; 192 hrs (8 days),0.01 ± 0.00 % dose/g
same,Biodistribution: Bone,[2]; 192 hrs (8 days),0.09 ± 0.01 % dose/g
same,Biodistribution: Brain,[2]; 192 hrs (8 days),0.01 ± 0.00 % dose/g
same,Biodistribution: Heart,[2]; 192 hrs (8 days),0.07 ± 0.01 % dose/g
same,Biodistribution: Intestine,[2]; 192 hrs (8 days),0.12 ± 0.05 % dose/g
same,Biodistribution: Kidney,[2]; 192 hrs (8 days),1.58 ± 0.43 % dose/g
same,Biodistribution: Liver,[2]; 192 hrs (8 days),0.12 ± 0.02 % dose/g
same,Biodistribution: Lung,[2]; 192 hrs (8 days),0.09 ± 0.02 % dose/g
same,Biodistribution: Muscle,[2]; 192 hrs (8 days),0.03 ± 0.00 % dose/g
same,Biodistribution: PC3 tumor,[2]; 192 hrs (8 days),0.35 ± 0.03 % dose/g
same,Biodistribution: PIP PC3 tumor,[2]; 192 hrs (8 days),13.14 ± 2.57 % dose/g
same,Biodistribution: Pancreas,[2]; 192 hrs (8 days),0.03 ± 0.00 % dose/g
same,Biodistribution: Skin,[2]; 192 hrs (8 days),0.16 ± 0.03 % dose/g
same,Biodistribution: Spleen,[2]; 192 hrs (8 days),0.30 ± 0.07 % dose/g
same,Biodistribution: Stomach,[2]; 192 hrs (8 days),0.10 ± 0.09 % dose/g
same,Time of highest uptake in PIP PC3 tumors,"[2]; mouse, in vivo",48 h
same,Uptake in PC3 tumors (PSMA negative) versus PC-3 PIP tumors (PSMA positive),"[2]; mouse, in vivo",much lower
same,Stability of injected doses,[3],stable
same,In vitro cell uptake,"[4]; PIP PC3, 5 min",5.0 % ID per 5 × 10^5 cells
same,In vitro cell uptake,"[4]; PIP PC3, 15 min",7.8 % ID per 5 × 10^5 cells
same,In vitro cell uptake,"[4]; PIP PC3, 30 min",10.1 % ID per 5 × 10^5 cells
same,In vitro cell uptake,"[4]; PIP PC3, 60 min",11.4 % ID per 5 × 10^5 cells
same,In vitro cell uptake,"[4]; PIP PC3, 60 min, with PSMA inhibitor (2-PMPA, 2 uM)",1.3 % ID per 5 × 10^5 cells
same,In vitro cell uptake,"[4]; PIP PC3, 120 min",11.9 % ID per 5 × 10^5 cells
